What all share (type): biochemical
Experiment [1] addresses T1, Human PKK (Homo sapiens (Human), UniProt P03952). Kind of experiment: Inhibition of PKK, endpoint assay (human PKK). To be noted: substrate H-Pro-Phe-Arg-AMC, 1 h room temperature. The method, then:
Subsequently, PPACK II (Calbiochem) was added as a stop solution to achieve a final concentration of 1 μM and fluorescence was measured using an Envision Reader (PerkinElmer) with the wavelength excitation setting of 355 nm and the wavelength emission setting of 460 nm.

The target in the next experiment is human TK1 (Homo sapiens (Human), UniProt P06870). Kind of experiment: Inhibition of TK1 (Ki). To be noted: column head prints IC50, text above the table says Ki values. A digest of the protocol:
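Trypsin-activated human TK1 (31.25 nM or 1 U/mL) incubated at 24 °C with 0.1 mM H-Pro-Phe-Arg-AMC and compound in pH 7.8 Tris/NaCl buffer with 0.1% BSA, 1% DMSO; fluorescence read kinetically over 16 min. IC50 from Vmax (2-12 min) four-parameter fit, converted to Ki using substrate KM.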

Experiment [2] concerns the target PKK in kaolin activated human platelet poor plasma (Homo sapiens (Human), UniProt P03952). Kind of experiment: Inhibition of PKK in kaolin activated human PPP. As to conditions: global fit over 25, 75, 250, 750 μg/mL kaolin. The method, then:
Platelet poor plasma (PPP) obtained from human wholeblood, anticoagulated with Na-Citrat, was incubated with various concentrations of the test compound together with either 25, 75, 250, or 750 μg/mL kaolin in assay buffer for 20 min at 37° C. such that for each kaolin dose used a concentration response was obtained for the test compound.

Experiment [3] has as its target T1, Human PKK. Kind of experiment: Inhibition of PKK (Ki), kinetic assay. To be noted: 24° C., IC50 corrected for KM.

human TK1, sequence (P06870 25-262): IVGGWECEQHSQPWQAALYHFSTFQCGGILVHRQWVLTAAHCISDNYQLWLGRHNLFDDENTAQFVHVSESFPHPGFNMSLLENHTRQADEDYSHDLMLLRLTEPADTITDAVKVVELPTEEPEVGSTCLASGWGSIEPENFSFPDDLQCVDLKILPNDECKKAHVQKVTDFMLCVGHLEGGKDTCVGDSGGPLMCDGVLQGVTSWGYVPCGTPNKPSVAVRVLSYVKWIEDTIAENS
T1 sequence (P03952 391-638): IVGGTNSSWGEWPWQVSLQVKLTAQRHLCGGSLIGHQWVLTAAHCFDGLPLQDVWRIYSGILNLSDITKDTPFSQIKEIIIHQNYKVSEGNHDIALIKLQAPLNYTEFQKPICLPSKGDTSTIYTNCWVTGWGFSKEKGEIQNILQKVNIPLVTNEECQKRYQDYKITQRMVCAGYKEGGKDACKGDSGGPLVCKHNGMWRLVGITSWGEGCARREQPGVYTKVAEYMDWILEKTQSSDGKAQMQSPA
T1 sequence (P03952 20-390 partner): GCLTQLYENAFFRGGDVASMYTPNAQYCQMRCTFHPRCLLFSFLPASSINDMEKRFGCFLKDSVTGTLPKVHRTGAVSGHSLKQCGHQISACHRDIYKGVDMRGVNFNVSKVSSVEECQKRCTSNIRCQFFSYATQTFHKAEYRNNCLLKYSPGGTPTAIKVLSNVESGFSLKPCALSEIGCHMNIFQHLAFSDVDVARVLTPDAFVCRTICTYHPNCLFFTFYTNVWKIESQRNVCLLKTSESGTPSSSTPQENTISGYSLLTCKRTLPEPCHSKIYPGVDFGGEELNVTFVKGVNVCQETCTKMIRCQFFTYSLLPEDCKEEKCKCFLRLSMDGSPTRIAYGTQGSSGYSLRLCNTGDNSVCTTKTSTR
PKK in kaolin activated human platelet poor plasma, sequence (P03952 391-638): as the sequence (P03952 391-638) above
PKK in kaolin activated human platelet poor plasma, sequence (P03952 20-390 partner): as the sequence (P03952 20-390 partner) above

Broadly, the IC50 is the concentration needed to halve the response being measured. Read a high IC50 as a need for much substance. One may read the IC90 as the concentration at which the effect reaches the 90% level. The Ki is the dissociation constant of the complex between target and ligand, obtained from inhibition or displacement. Read a low Ki as tighter binding. Take `Cc1nc(N2CC3CC3C2)ccc1Cn1cc(C(=O)NC2CCc3c(C)n[nH]c32)cn1` (stereo not shown) [Example 1, 1-[(6-{3-Azabicyclo[3.1.0]hexan-3-yl}-2-methylpyridin-3-yl)methyl]-N-{3-methyl-1H,4H,5H,6H-cyclopenta[c]pyrazol-6-yl}-1H-pyrazole-4-carboxamide]: the IC50 is 2 nM at Human PKK [1] and over 10000 nM against human TK1. Further, the IC90 in experiment [2] worked out at 705 nM. At Human PKK [3], this compound yielded a Ki of 1 nM.
Take `Cc1nc(N2CCCC2)ccc1Cn1cc(C(=O)N[C@@H]2CCc3c2n[nH]c3C)cn1` [Example 52, N-[(6R)-3-Methyl-2H,4H,5H,6H-cyclopenta[c]pyrazol-6-yl]-1-{[2-methyl-6-(pyrrolidin-1-yl)pyridin-3-yl]methyl}-1H-pyrazole-4-carboxamide]: the IC50 was 4 nM on Human PKK [1] and over 10000 nM against human TK1. For the same compound, in experiment [2], the IC90 was found to be 5120 nM. The compound also showed a Ki at Human PKK [3] of 1 nM.
Consider `Cc1nc(N2CC3CC3C2)ccc1Cn1cc(C(=O)N[C@@H]2CCc3c2n[nH]c3C)nc1Cl` (stereo partly drawn) [Example 102, 1-[(6-{3-Azabicyclo[3.1.0]hexan-3-yl}-2-methyl-pyridin-3-yl)methyl]-2-chloro-N-[(6R)-3-methyl-2H,4H,5H,6H-cyclopenta[c]pyrazol-6-yl]-1H-imidazole-4-carboxamide], for which the IC50 against Human PKK [1] was 1 nM; against human TK1, over 10000 nM. For the same compound, the concentration for an effect of 90% (IC90) in experiment [2] is 5480 nM. The compound further registered a Ki at Human PKK [3] of 4 nM.
The matching figures for `Cc1nc(N2C[C@@H]3[C@H](CO)[C@@H]3C2)ccc1Cn1cnc(C(=O)N[C@@H]2CCc3c2n[nH]c3C)c1` (stereo in doubt) [Example 99, 1-({6-[(1R,5S,6S)-6-(Hydroxymethyl)-3-aza-bicyclo[3.1.0]hexan-3-yl]-2-methylpyridin-3-yl}-methyl)-N-[(6R)-3-methyl-2H,4H,5H,6H-cyclo-penta[c]pyrazol-6-yl]-1H-imidazole-4-carboxamide]: 1 nM, over 10000 nM, 388 nM and 1 nM.
The matching figures for `Cc1nc(N2CC3CC3C2)ccc1Cc1csc(C(=O)N[C@@H]2CCc3c(C)n[nH]c32)c1` (stereo partly drawn) [Example 6, 4-[(6-{3-Azabicyclo[3.1.0]hexan-3-yl}-2-methylpyridin-3-yl)methyl]-N-[(6R)-3-methyl-1H,4H,5H,6H-cyclopenta[c]pyrazol-6-yl]thiophene-2-carboxamide]: 0.7 nM, over 10000 nM, 291 nM and 0.5 nM.
The matching figures for `Cc1nc(N2CCC(C(F)F)C2)ccc1Cn1cc(C(=O)N[C@@H]2CCc3c2n[nH]c3C)cn1` (stereo partly drawn) [Example 46, 1-({6-[3-(Difluoromethyl)pyrrolidin-1-yl]-2-methylpyridin-3-yl}methyl)-N-[(6R)-3-methyl-2H,4H,5H,6H-cyclopenta[c]pyrazol-6-yl]-1H-pyrazole-4-carboxamide]: 4 nM, over 10000 nM, 2840 nM and 1 nM.
Turning to `Cc1nc(N2C[C@@H]3[C@H](C)[C@@H]3C2)ncc1Cn1cnc(C(=O)N[C@@H]2CCc3c2n[nH]c3C)c1` [Example 101, 1-({4-Methyl-2-[(1R,5S,6R)-6-methyl-3-azabicyclo[3.1.0]hexan-3-yl]pyrimidin-5-yl}methyl)-N-[(6R)-3-methyl-2H,4H,5H,6H-cyclopenta[c]-pyrazol-6-yl]-1H-imidazole-4-carboxamide], the IC50 was 2 nM at Human PKK [1] and over 10000 nM against human TK1. Moreover, the IC90 in experiment [2] was found to be 727 nM. For the same compound, the affinity at Human PKK [3] corresponds to a Ki of 2 nM.
For `Cc1nc(N2CCC(C)(C)C2)ccc1Cn1cc(C(=O)N[C@@H]2CCc3c2n[nH]c3C)cn1` [Example 35, 1{[6-(3,3-Dimethylpyrrolidin-1-yl)-2-methylpyridin-3-yl]methyl}-N-[(6R)-3-methyl-2H,4H,5H,6H-cyclopenta[c]pyrazol-6-yl]-1H-pyrazole-4-carboxamide], the IC50 on Human PKK [1] is 2 nM; against human TK1, over 10000 nM. Moreover, the IC90 in experiment [2] came to 2010 nM. This compound yielded a Ki at Human PKK [3] of 0.9 nM.
In the case of `Cc1nc(N2C[C@@H]3[C@H](C)[C@@H]3C2)ccc1Cn1cnc(C(=O)N[C@@H]2CCc3c2n[nH]c3C)c1` [Example 100, N-[(6R)-3-Methyl-2H,4H,5H,6H-cyclopenta[c]-pyrazol-6-yl]-1-({2-methyl-6-[(1R,5S,6R)-6-methyl-3-azabicyclo[3.1.0]hexan-3-yl]pyridin-3-yl}methyl)-1H-imidazole-4-carboxamide], the values for the IC50 against Human PKK [1] and on human TK1 were 0.4 nM and over 10000 nM, respectively. Moreover, in experiment [2], the IC90 stood at 303 nM. This compound also yielded a Ki on Human PKK [3] of 0.8 nM.
For `Cc1nc(N2CCC(C)(C#N)C2)ccc1Cn1cc(C(=O)N[C@@H]2CCc3c2n[nH]c3C)cn1` (stereo partly drawn) [Example 71, 1-{[6-(3-Cyano-3-methylpyrrolidin-1-yl)-2-methylpyridin-3-yl]methyl}-N-[(6R)-3-methyl-2H,4H,5H,6H-cyclopenta[c]pyrazol-6-yl]-1H-pyrazole-4-carboxamide], in that order: 2 nM, over 10000 nM, 708 nM and 1 nM.

The values are drawn from patent publication US10695334B2, “Heteroaromatic carboxamide derivatives as plasma kallikrein inhibitors” (Boehringer Ingelheim International GmbH, priority 2018, dated 2020).
